This note sets out measurements from patent publication US20090082372A1, “Arylmethylene Substituted N-Acyl-Beta-Amino Alcohols” (priority 2007, published 2009).

The target in this assay is T1, human FSH receptor (Homo sapiens, UniProt P23945).
T1 construct: expressed in transfected cells; host or cells: CHO cells (hFSHR clone 16)
T1 sequence (P23945 18-695): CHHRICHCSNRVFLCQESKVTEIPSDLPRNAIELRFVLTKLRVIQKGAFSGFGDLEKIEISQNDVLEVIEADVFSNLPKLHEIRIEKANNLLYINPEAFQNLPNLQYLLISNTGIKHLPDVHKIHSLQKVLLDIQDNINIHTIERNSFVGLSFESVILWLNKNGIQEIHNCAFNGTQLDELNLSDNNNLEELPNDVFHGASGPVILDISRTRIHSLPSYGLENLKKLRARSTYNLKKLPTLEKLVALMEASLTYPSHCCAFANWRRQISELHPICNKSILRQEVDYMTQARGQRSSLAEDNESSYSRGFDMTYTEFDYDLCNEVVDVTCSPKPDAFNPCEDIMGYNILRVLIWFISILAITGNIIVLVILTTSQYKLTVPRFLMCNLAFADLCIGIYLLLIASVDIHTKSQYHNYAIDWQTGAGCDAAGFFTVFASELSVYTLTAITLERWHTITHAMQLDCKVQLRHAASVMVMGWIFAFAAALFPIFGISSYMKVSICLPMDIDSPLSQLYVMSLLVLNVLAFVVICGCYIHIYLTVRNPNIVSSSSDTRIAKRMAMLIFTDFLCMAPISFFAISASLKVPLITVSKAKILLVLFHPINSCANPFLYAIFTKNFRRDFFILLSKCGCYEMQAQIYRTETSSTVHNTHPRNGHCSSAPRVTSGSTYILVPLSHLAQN
The assay can be described thus: HTRF assay for measuring cAMP in cells (FSH antagonism). The settings on record: hFSHR clone 16 cells (CHO cells stably transfected with the human FSH receptor); in the presence of 1e-9 mol/l hFSH; 37° C. for 2 h; read-out: IC50 (FSH-antagonistic effect in the HTRF assay). The format is cell-based. The protocol:
HTRF Assay for Measuring cAMP in Cells
The method is based on a competitive immunoassay between native cAMP, which has been produced by the cells, and cAMP which is labelled with XL665. The tracer binding was visualized by a monoclonal antibody, anti-cAMP labelled with cryptate [HTRF=homogeneous time-resolved fluorescence].
The specific signal is inversely proportional to the cAMP concentration of the samples employed. The 665 nm/620 nm fluorescence ratio was evaluated.
The following material was used: 96-well plates for the tissue culture, 96-well plates with black edge and black base (e.g. Fluotrac 600 from Greiner), 96-well plates for the substance dilutions of polypropylene and cAMP Femtomolar (4000 wells Kit, CIS Bio International #62AM1PEC).
The following reagents were used: BSA (bovine serum albumin) Fraction V protease-free, IBMX (3-isobutyl-1-methylxanthine), hFSH (human follicle stimulating hormone), Triton X-100 analytical grade, potassium fluoride analytical grade, G 418 (Geneticin) and Accutase.
Buffer 1 (washing and testing buffer) contained PBS, 1 mM CaCl2, 1 mM MgCl2, 0.2% glucose; 0.1% BSA, 1 mM IBMX. Buffer 2 (2× lysis buffer) contained 1% Triton X-100 in PBS (without CaCl2 and MgCl2). Buffer 3 (assay buffer) contained 50 mM potassium phosphate buffer (pH 7.0); 800 mM potassium fluoride; 0.2% BSA (always added fresh).
On day 1, the cells were seeded in 96-well plates (3×10^4 cells per well hFSHR clone 16 cells (CHO cells stably transfected with the human FSH receptor in 150 μl of medium).
The next day, test substance dilutions were made up. For this purpose, all the substances were diluted in ice-cold buffer 1 (with or without hFSH), and the substance dilutions were placed on ice until applied to the cells.
The cell supernatant was then aspirated off, and the cells were washed 2× with 200 μl of buffer 1. The cells were treated with 60 μl of the appropriate substance concentrations at 37° C. for 2 h. The cells were then lysed with 60 μl of buffer 2 (put onto the supernatant) (on a plate shaker at RT for 30 min).
The test conjugates (XL-665 and anti-cAMP cryptate) were diluted in buffer 3 in accordance with the manufacturers' information. The actual mixture for measurement was pipetted into a black 96-well plate (in each case 15 μl of the cell lysate diluted with 35 μl of buffer 1; firstly 25 μl of XL-665 conjugate were pipetted and, after 10 min, 25 μl of the anti-cAMP cryptate were added). This is followed by incubation at RT for 90 minutes. The measurement was carried out in a PheraStar (BMG).
Dose-effect curve (hFSH) for the human receptor: 1e-8, 3e-9, 1e-9, 3e-10, 1e-10, 3e-11, 1e-11, 3e-12 mol/l.
The test substances were employed in suitable dilutions in the absence (test for agonism) and in the presence of 1e-9 mol/l hFSH.
The values of the well ratio were averaged and then entered directly in SigmaPlot versus the concentrations. The maximum and minimum values were determined for each plate, and half the difference is to be regarded as IC50.
For orientation: Time-resolved FRET reads energy transfer from a long-lived donor to a nearby acceptor.
For `CNC(=O)c1ccc(C#Cc2ccc(OC(F)(F)F)c(C(=O)N[C@@H](CO)Cc3n[nH]c4cccc(F)c34)c2)cc1` (stereo in doubt) [Example 16, N-[2-hydroxy-1-(4-fluoro-1H-indazol-3-ylmethyl)-ethyl]-2-trifluoromethoxy-5-[(4-methylaminocarbonyl-phenyl)-ethynyl]-benzamide], the IC50 worked out at 9 µM. To `CNC(=O)c1cc(F)cc(-c2ccc(OC(C)C)c(C(=O)NC(CO)Cc3c[nH]c4ncccc34)c2)c1` (centres unmarked) [Example 1, 5′-Fluoro-4-isopropoxy-biphenyl-3,3′-dicarboxylic acid 3-{[2-hydroxy-1-(1H-pyrrolo[2,3-b]pyridin-3-ylmethyl)-ethyl]-amide}3′-methylamide] belongs 1.5 µM; to `COc1ccccc1C#Cc1ccc(OC(C)C)c(C(=O)NC(CO)Cc2c[nH]c3ncccc23)c1` (centres unmarked) [Example 3, N-[1-Hydroxymethyl-2-(1H-pyrrolo[2,3-b]pyridin-3-yl)-ethyl]-2-isopropoxy-5-(2-methoxy-phenylethynyl)-benzamide], 4 µM; to `CNC(=O)c1ccc(-c2cc3c(c(C(=O)NC(CO)Cc4c[nH]c5ncccc45)c2)OC(C)(C)C=C3)cc1Cl` (centres unmarked) [Example 5, 6-(3-Chloro-4-methylcarbamoyl-phenyl)-2,2-dimethyl-2H-chromene-8-carboxylic acid [2-hydroxy-1-(1H-pyrrolo[2,3-b]pyridin-3-ylmethyl)-ethyl]-amide], 0.065 µM. To `COc1ccc2nc(-c3cc(OC)c(OC)c(OC)c3)cc(C(=O)N[C@@H](CO)Cc3csc4ccccc34)c2c1` [Example 6, 6-Methoxy-2-(3,4,5-trimethoxy-phenyl)-quinoline-4-carboxylic acid ((R)-2-benzo[b]-thiophen-3-yl-1-hydroxy-methyl-ethyl)-amide] belongs 6 µM. As for `COc1ccc2nc(-c3cc(OC)c(OC)c(OC)c3)cc(C(=O)N[C@@H](CO)Cc3ccc4ccccc4c3)c2c1` [Example 9, 6-Methoxy-2-(3,4,5-trimethoxy-phenyl)-quinoline-4-carboxylic acid ((R)-2-hydroxy-1-naphthalen-2-ylmethyl-ethyl)-amide], the figure is 8 µM; as for `COc1ccc2nc(-c3cc(OC)c(OC)c(OC)c3)cc(C(=O)NC(CO)Cc3ccc4ccccc4c3)c2c1` (centres unmarked) [Example 12, 6-Methoxy-2-(3,4,5-trimethoxy-phenyl)-quinoline-4-carboxylic acid (2-hydroxy-1-naphthalen-2-ylmethyl-ethyl)-amide], 10 µM; as for `CNC(=O)c1ccc(-c2ccc(OC(F)(F)F)c(C(=O)N[C@@H](CO)Cc3n[nH]c4c(F)cccc34)c2)cc1Cl` [Example 14, 3′-Chloro-4-trifluoromethoxy-biphenyl-3,4′-dicarboxylic acid 3-{[2-hydroxy-1-(7-fluoro-1H-indazol-3-ylmethyl)-ethyl]-amide}4′-methylamide], 5 µM. In the case of `COc1ccc2nc(-c3ccc(OC)c(F)c3)nc(C(=O)NC(CO)Cc3c[nH]c4cccnc34)c2c1` (centres unmarked) [Example 21, 2-(3-Fluoro-4-methoxy-phenyl)-6-methoxy-quinazoline-4-carboxylic acid [2-hydroxy-1-(1H-pyrrolo[3,2-b]pyridin-3-ylmethyl)-ethyl]-amide], the IC50 was 5 µM. As for `COc1ccccc1C#Cc1ccc(OC(C)C)c(C(=O)NC(CO)Cc2c[nH]c3cccnc23)c1` (centres unmarked) [Example 22, N-[1-Hydroxymethyl-2-(1H-pyrrolo[3,2-b]pyridin-3-yl)-ethyl]-2-isopropoxy-5-(2-methoxy-phenylethynyl)-benzamide], the figure is 0.2 µM; as for `CNC(=O)c1cc(F)cc(-c2ccc(OC(C)C)c(C(=O)NC(CO)Cc3cc4ncccc4[nH]3)c2)c1` (centres unmarked) [Example 24, 5′-Fluoro-4-isopropoxy-biphenyl-3,3′-dicarboxylic acid 3-{[1-hydroxymethyl-2-(1H-pyrrolo[3,2-b]pyridin-2-yl)-ethyl]-amide}3′-methyl amide], 0.07 µM; as for `COc1ccc(-c2cc3c(c(C(=O)NC(CO)Cc4c[nH]c5cccnc45)c2)OCCCC3)cc1OC` (centres unmarked) [Example 26, 7-(3,4-Dimethoxy-phenyl)-2,3,4,5-tetrahydro-benzo[b]oxepine-9-carboxylic acid [1-hydroxymethyl-2-(1H-pyrrolo[3,2-b]pyridin-3-yl)-ethyl]-amide], 1 µM. As for `CNC(=O)c1ccc(-c2ccc(OC(C)C)c(C(=O)NC(CO)Cc3c[nH]c4cnccc34)c2)cc1Cl` (centres unmarked) [Example 39, 3′-Chloro-4-isopropoxy-biphenyl-3,4′-dicarboxylic acid 3-{[2-hydroxy-1-(1H-pyrrolo[2,3-c]pyridin-3-ylmethyl)-ethyl]-amide}4′-methylamide], the figure is 6.5 µM. As for `COc1ccccc1C#Cc1ccc(OC(C)C)c(C(=O)NC(CO)Cc2c[nH]c3cnccc23)c1` (centres unmarked) [Example 42, N-[2-Hydroxy-1-(1H-pyrrolo[2,3-c]pyridin-3-ylmethyl)-ethyl]-2-isopropoxy-5-(2-methoxy-phenylethynyl)-benzamide], the figure is 5 µM.

Broadly, the IC50 is the midpoint of a concentration-inhibition curve.
